Patent US10231954B2, “Neurodegenerative therapies” (LYTIX BIOPHARMA AS, priority 2014, dated 2019)
pIC50: −log10 of the molar value.

Experiments:
Format in all cases: biochemical
DYRK1A = DYRK1A (Homo sapiens, UniProt Q13627); assay: Determination of IC50 values against DYRK1a; details: average of duplicate; 10 concentrations 100 μM to 0.003 μM; read-out: IC 50 against DYRK1a
Method: The kinase assay was carried out using Multidrop 384's at room temperature in a total assay volume of 25.5 μl. To plates containing 0.5 μl of compounds, DMSO controls or acid blanks, 15 μl of an enzyme mix containing the DYRK1a enzyme and peptide/protein substrate in buffer was added. Compounds were pre-incubated in the presence of the enzyme and peptide/protein substrate for 5 minutes before initiation of the reaction by addition of 10 μl of ATP (final concentration selected for each kinase at 5, 20 or 50 μM). Assays were carried out for 30 minutes at room temperature before termination by the addition of 5 μl orthophosphoric acid. The assay plates were then harvested onto P81 Unifilter Plates by a Packard Harvester (wash buffer is 50 mM orthophosphoric acid) and dried in air. The dry Unifilter plates were then sealed by the addition of MicroScint O and counted in Packard Topcount NXT scintillation counters.

MKK1 = MKK1 (Homo sapiens, UniProt Q02750); assay: Kinase profiling MKK1; details: 100 micromolar inhibitor concentration; 100 is no change
Description: (§1) Any value less that 25 is considered to be highly significant inhibition.

JNK1 = JNK1 (Homo sapiens, UniProt P45983); assay: Kinase profiling JNK1; details: 100 micromolar inhibitor concentration; 100 is no change
Description: as §1

p38a MAPK = p38a MAPK (Homo sapiens, UniProt Q16539); assay: Kinase profiling p38a MAPK; details: 100 micromolar inhibitor concentration; 100 is no change
Description: as §1

RSK1 = RSK1 (Homo sapiens, UniProt Q15418); assay: Kinase profiling RSK1; details: 100 micromolar inhibitor concentration; 100 is no change
Description: as §1

PDK1 = target: T1, PDK1 (Homo sapiens, UniProt O15530); assay: Kinase profiling PDK1; details: 100 micromolar inhibitor concentration; 100 is no change
T1 sequence (O15530 1-556): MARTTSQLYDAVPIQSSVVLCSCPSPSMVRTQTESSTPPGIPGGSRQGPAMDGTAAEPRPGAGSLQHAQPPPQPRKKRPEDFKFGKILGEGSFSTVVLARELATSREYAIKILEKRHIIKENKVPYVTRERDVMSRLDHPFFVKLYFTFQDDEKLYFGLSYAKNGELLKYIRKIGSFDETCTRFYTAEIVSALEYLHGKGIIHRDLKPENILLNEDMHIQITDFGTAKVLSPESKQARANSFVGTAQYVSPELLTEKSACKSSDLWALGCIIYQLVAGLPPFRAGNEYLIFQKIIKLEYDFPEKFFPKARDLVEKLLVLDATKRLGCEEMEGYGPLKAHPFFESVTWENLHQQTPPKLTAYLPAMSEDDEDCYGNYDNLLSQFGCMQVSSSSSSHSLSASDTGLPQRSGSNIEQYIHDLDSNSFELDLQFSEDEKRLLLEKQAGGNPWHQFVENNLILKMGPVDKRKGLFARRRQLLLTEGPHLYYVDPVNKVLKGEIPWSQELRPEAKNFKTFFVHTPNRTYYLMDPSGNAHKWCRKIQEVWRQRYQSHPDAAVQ
Description: as §1

PKBa = PKBa (Homo sapiens, UniProt P31749); assay: Kinase profiling PKBa; details: 100 micromolar inhibitor concentration; 100 is no change
Description: as §1

SGK1 = target: T2, SGK1 (Homo sapiens, UniProt O00141); assay: Kinase profiling SGK1; details: 100 micromolar inhibitor concentration; 100 is no change
T2 sequence (O00141 1-431): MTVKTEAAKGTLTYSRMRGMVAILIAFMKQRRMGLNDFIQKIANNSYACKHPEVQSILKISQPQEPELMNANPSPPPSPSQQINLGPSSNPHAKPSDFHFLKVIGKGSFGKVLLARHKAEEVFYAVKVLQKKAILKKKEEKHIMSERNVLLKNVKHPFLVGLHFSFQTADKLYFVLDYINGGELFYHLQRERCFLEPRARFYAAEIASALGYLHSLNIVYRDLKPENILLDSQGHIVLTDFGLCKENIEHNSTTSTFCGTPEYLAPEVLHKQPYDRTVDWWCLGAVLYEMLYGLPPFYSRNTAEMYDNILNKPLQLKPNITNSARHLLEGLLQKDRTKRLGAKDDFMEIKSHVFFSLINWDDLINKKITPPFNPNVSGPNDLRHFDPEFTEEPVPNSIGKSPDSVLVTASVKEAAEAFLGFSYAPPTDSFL
Description: as §1

S6K1 = S6K1 (Homo sapiens, UniProt P23443); assay: Kinase profiling S6K1; details: 100 micromolar inhibitor concentration; 100 is no change
Description: as §1

PKA = PKA (Homo sapiens, UniProt P17612); assay: Kinase profiling PKA; details: 100 micromolar inhibitor concentration; 100 is no change
Description: as §1

ROCK 2 = ROCK 2 (Homo sapiens, UniProt O75116); assay: Kinase profiling ROCK 2; details: 100 micromolar inhibitor concentration; 100 is no change
Description: as §1

PRK2 = PRK2 (Homo sapiens, UniProt Q16513); assay: Kinase profiling PRK2; details: 100 micromolar inhibitor concentration; 100 is no change
Description: as §1

PKCa = PKCa (Homo sapiens, UniProt P17252); assay: Kinase profiling PKCa; details: 100 micromolar inhibitor concentration; 100 is no change
Description: as §1

PKD1 = target: T3, PKD1 (Homo sapiens, UniProt Q15139); assay: Kinase profiling PKD1; details: 100 micromolar inhibitor concentration; 100 is no change
T3 sequence (Q15139 1-912): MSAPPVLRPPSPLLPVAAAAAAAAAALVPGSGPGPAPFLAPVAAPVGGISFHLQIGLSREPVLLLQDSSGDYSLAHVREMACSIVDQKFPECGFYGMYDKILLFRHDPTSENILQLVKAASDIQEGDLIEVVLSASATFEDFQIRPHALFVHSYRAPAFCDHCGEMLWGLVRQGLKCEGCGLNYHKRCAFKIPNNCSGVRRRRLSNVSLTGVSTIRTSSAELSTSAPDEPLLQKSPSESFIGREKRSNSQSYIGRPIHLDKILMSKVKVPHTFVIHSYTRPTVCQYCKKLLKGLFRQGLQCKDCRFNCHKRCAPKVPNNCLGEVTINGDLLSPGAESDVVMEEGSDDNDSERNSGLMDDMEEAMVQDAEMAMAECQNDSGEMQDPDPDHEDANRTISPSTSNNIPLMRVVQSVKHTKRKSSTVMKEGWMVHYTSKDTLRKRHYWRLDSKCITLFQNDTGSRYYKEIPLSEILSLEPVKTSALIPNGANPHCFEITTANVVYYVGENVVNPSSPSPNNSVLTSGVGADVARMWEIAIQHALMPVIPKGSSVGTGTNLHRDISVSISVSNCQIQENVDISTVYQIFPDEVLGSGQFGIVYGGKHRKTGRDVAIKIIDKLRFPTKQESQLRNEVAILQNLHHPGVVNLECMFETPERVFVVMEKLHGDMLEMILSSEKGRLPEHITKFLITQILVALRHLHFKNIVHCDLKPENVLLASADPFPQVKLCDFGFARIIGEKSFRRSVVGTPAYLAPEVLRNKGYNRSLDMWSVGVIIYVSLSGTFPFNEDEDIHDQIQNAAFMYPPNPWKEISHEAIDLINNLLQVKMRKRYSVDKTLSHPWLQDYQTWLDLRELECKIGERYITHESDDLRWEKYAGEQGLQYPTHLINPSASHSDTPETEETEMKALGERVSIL
Description: as §1

Chain of JNK1 (P45983 whole entry, species assumed): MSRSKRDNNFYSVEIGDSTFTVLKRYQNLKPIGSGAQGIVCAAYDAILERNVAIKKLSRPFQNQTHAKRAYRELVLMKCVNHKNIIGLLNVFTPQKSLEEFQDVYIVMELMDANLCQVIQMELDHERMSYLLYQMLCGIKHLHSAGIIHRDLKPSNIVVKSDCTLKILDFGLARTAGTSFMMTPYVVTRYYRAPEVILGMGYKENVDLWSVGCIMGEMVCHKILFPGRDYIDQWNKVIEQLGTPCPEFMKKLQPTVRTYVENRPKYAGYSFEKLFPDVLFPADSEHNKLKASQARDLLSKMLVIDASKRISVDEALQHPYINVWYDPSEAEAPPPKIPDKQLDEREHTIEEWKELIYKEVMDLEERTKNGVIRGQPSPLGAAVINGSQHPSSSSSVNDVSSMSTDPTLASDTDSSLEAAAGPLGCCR
Chain of PKBa (P31749 whole entry): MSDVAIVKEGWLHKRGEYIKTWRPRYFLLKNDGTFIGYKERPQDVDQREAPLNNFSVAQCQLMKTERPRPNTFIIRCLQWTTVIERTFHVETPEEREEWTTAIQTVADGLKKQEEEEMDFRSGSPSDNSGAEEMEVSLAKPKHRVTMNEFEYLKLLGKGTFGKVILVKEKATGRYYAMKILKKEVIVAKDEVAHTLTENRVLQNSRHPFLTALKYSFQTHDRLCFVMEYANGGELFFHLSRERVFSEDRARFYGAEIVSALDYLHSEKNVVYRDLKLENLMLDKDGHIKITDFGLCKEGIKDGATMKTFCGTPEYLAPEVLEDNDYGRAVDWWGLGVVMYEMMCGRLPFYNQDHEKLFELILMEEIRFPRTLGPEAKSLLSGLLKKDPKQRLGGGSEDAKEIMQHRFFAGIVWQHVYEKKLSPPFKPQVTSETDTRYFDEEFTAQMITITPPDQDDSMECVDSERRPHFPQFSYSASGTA
Chain of ROCK 2 (O75116 whole entry, species assumed): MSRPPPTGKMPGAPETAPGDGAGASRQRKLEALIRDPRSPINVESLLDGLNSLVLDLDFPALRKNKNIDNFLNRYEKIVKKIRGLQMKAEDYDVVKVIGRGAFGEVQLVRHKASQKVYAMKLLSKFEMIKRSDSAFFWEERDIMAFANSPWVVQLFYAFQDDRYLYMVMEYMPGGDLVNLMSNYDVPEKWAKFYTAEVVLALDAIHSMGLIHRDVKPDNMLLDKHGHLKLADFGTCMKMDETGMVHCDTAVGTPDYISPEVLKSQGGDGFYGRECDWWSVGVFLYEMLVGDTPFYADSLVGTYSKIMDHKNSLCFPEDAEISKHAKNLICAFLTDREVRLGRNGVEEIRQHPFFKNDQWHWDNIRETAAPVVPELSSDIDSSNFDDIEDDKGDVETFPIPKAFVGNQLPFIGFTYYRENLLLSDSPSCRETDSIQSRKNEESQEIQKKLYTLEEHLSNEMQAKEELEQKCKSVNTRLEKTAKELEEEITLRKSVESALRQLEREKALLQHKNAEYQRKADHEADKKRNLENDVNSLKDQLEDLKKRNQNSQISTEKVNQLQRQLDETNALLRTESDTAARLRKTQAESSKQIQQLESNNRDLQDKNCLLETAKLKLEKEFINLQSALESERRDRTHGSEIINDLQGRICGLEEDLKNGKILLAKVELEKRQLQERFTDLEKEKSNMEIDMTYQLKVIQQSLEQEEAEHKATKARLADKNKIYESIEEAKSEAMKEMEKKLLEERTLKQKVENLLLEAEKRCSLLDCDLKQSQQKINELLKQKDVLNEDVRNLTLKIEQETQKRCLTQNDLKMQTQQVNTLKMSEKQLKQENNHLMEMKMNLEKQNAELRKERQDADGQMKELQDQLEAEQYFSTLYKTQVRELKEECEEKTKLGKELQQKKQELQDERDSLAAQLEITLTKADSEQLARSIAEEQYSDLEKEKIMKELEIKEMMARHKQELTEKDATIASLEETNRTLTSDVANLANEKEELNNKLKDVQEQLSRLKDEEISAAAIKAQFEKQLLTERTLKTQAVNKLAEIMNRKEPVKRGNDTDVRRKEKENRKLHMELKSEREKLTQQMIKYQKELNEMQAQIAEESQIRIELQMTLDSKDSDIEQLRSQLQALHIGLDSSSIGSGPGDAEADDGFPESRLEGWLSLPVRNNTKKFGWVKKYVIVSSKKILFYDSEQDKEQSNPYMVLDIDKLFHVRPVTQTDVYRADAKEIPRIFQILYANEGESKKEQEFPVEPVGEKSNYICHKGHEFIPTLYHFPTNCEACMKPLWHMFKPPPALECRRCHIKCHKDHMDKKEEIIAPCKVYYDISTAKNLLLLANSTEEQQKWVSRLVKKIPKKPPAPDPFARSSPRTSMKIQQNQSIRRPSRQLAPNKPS
Chain of p38a MAPK (Q16539 whole entry): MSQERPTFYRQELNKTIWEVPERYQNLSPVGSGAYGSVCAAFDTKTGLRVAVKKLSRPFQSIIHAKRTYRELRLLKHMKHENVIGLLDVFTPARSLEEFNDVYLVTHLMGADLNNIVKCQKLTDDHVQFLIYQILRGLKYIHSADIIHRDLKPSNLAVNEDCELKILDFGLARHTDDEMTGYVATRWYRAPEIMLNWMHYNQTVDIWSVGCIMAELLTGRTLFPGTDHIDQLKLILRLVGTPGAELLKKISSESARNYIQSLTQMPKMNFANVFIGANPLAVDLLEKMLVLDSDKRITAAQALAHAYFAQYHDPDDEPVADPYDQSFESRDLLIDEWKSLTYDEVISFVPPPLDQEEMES
Chain of MKK1 (Q02750 whole entry, species assumed): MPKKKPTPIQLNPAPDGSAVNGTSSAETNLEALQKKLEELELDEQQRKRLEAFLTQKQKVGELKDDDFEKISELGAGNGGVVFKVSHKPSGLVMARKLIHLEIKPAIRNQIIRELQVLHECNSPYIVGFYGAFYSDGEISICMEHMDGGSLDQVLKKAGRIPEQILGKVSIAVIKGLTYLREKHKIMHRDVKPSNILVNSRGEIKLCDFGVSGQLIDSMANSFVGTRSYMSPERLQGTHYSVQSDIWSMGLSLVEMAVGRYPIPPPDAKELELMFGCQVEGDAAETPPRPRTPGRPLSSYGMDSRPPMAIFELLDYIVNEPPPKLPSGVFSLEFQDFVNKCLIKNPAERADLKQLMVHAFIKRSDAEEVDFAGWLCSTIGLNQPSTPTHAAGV
Chain of RSK1 (Q15418 whole entry, species assumed): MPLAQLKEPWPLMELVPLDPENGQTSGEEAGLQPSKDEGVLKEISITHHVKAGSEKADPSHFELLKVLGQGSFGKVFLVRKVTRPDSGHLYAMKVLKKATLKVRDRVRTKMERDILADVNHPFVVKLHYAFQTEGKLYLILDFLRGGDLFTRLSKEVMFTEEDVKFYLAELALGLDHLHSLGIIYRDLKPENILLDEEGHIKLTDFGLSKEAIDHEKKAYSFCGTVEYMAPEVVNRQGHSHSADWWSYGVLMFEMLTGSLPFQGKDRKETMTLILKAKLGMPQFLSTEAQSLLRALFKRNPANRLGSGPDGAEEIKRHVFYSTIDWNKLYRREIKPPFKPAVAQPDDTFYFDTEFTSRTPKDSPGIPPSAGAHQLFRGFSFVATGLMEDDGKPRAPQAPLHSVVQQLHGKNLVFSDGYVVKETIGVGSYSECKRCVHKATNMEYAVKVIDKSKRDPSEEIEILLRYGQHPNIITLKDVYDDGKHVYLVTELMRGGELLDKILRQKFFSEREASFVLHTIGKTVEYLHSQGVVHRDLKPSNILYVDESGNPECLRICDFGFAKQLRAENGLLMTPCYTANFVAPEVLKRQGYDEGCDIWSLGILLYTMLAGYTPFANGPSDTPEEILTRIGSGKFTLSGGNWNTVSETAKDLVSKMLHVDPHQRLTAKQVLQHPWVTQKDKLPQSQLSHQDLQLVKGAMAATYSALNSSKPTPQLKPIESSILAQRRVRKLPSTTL
Chain of S6K1 (P23443 whole entry, species assumed): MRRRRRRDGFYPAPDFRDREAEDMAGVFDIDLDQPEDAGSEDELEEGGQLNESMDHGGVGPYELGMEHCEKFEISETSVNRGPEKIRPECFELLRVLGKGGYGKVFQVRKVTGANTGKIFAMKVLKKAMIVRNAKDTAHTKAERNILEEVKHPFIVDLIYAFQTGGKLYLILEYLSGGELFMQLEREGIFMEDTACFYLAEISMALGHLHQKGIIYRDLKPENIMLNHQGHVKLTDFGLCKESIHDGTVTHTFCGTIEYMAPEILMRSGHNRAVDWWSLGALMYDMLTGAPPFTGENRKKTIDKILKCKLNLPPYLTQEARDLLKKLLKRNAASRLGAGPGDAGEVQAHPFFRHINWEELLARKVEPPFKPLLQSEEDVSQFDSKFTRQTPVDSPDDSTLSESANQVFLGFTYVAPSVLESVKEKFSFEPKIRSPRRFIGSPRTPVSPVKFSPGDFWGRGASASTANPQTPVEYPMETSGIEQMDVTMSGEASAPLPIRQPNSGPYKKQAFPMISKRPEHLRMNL

| SMILES | pIC50 (DYRK1A) | residual kinase activity, MKK1 (MKK1) | residual kinase activity, JNK1 (JNK1) | residual kinase activity, p38a MAPK (p38a MAPK) | residual kinase activity, RSK1 (RSK1) | residual kinase activity, PDK1 (PDK1) | residual kinase activity, PKBa (PKBa) | residual kinase activity, SGK1 (SGK1) | residual kinase activity, S6K1 (S6K1) | residual kinase activity, PKA (PKA) | residual kinase activity, ROCK 2 (ROCK 2) | residual kinase activity, PRK2 (PRK2) | residual kinase activity, PKCa (PKCa) | residual kinase activity, PKD1 (PKD1) |
| --- | --- | --- | --- | --- | --- | --- | --- | --- | --- | --- | --- | --- | --- | --- |
| COc1ccc2nc(NC(C)=O)sc2c1 [Compound 03-20] | 4.91 |  |  |  |  |  |  |  |  |  |  |  |  |  |
| CC(=O)Nc1nc2ccc(C(N)=O)cc2s1 [Compound 08-70] | 4.80 |  |  |  |  |  |  |  |  |  |  |  |  |  |
| CC(=O)Nc1ccc(C(=O)Nc2nc3ccc(O)cc3s2)cc1 [Compound 03-74] |  | 35 | 80 | 106 | 19 | 93 | 87 | 59 | 29 | 90 | 32 | 54 | 92 | 53 |
